# US20250161244A1 (UNION HOSPITAL, TONGJI MEDICAL COLLEGE, HUAZHONG UNI. OF …, priority 2023, published 2025)
# Tested on: LX-2 cells (human HSCs)
# Test: CCK8 experiment, proliferation of LX-2 cells
# Format: cell-based
# Conditions: 48 h incubation, CCK-8; tested at 2.5 μM and 5 μM
structure (smiles),measurement,value
"CC1=C(/C=C/C(C)=C/C=C/C(C)=C/CO)C(C)(C)CCC1 [VA, vitamin A]",inhibitory effect on LX-2 cells proliferation,no inhibitory effect
